The values that follow are results of earlier work, collected in US20080069871A1, “H[…] DETERRENT DELIVERY SYSTEM” (priority 2006, published 2008).

For this data set the following is noted: stated as reason for use as model drug.

Consider `Cc1ncc([N+](=O)[O-])n1CCO` [metronidazole, Metronidazole], for which the “solubility in water and aqueous ethanol solutions” value was “highly soluble”.
